The source of these data is PubChem BioAssay (NCI).

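1) Cells in 96-well plates. 2) Compound, 48 h, 5 concentrations. 3) Linear interpolation between surrounding doses. 4) Unreached endpoint = highest concentration. GI50 is the concentration that inhibits growth by half. TGI is the concentration that stops growth completely.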

Some test systems named below: DU-145 prostate; M14 melanoma; MDA-MB-231 breast; NCI-H226 lung; NCI-H460 lung; SNB-75 CNS; SW-620 colon; TK-10 renal; UACC-257 melanoma; NCI-H522 lung.
Assay in all cases: growth of human tumour cells (NCI), 48 h

`CCC(C(=O)C(=O)OC)P1(=O)OC(C)(C)CN1C(C)(C)C` (stereo unspecified): the TGI with DU-145 prostate, in the assay on M14 melanoma, with MDA-MB-231 breast, in the assay on NCI-H226 lung, in the assay on NCI-H460 lung and in the assay with SNB-75 CNS was over 100 µM throughout. Further, the TGI with SW-620 colon, in the assay with TK-10 renal and with UACC-257 melanoma was over 100 µM throughout.
Regarding `N#Cc1c(-c2ccccc2)cc(-c2ccc(Cl)cc2)[nH]c1=S`, the TGI is over 100 µM with DU-145 prostate; over 100 µM with M14 melanoma; 67.3 µM with MDA-MB-231 breast; 80.5 µM with NCI-H226 lung; over 100 µM in the assay with NCI-H460 lung; 70.5 µM in the assay on NCI-H522 lung. Also, the TGI with SNB-75 CNS, with SW-620 colon and in the assay on TK-10 renal was over 100 µM throughout.
For `CC(=O)c1cnc2oc3ccc(O)cc3c2c1-c1ccccc1`, the TGI is over 100 µM in the assay with DU-145 prostate; over 100 µM in the assay with M14 melanoma; over 100 µM with MDA-MB-231 breast; over 100 µM in the assay on NCI-H226 lung; over 100 µM in the assay on NCI-H460 lung; 22 µM in the assay on SNB-75 CNS. For the same compound, the TGI with SW-620 colon, in the assay on TK-10 renal and in the assay with UACC-257 melanoma was over 100 µM in each case. The GI50 in the assay with SNB-75 CNS was 2.57 µM.
As for `[O-]/[N+](=C\c1ccccc1OC(=S)S)c1ccc(Cl)cc1`, the TGI in the assay on DU-145 prostate is over 100 µM; in the assay on M14 melanoma, over 100 µM; in the assay on MDA-MB-231 breast, 34.7 µM; in the assay on NCI-H226 lung it was over 100 µM; in the assay with NCI-H460 lung it was over 100 µM; with NCI-H522 lung, 52.8 µM. Further, the TGI with SNB-75 CNS, in the assay with SW-620 colon, in the assay with TK-10 renal and with UACC-257 melanoma was over 100 µM in each case.
With `Cc1c2c(OCC3CCCCO3)nn(C)c(=O)c2c(C)n1-c1ccccc1` (stereo unspecified), the TGI in the assay with DU-145 prostate is 36.9 µM; in the assay with M14 melanoma, 34.9 µM; in the assay on MDA-MB-231 breast, 32.2 µM; in the assay on NCI-H226 lung it was 42.7 µM; in the assay on NCI-H460 lung it was 30.9 µM; in the assay on NCI-H522 lung it was 34.9 µM. The TGI with SNB-75 CNS stood at 32 µM; in the assay on TK-10 renal, 45.4 µM; in the assay on UACC-257 melanoma, 34.9 µM.
`N#Cc1nc(NC(=O)c2ccccc2C(=O)O)c(C#N)[nH]1`: the TGI in the assay on DU-145 prostate, with M14 melanoma, in the assay on MDA-MB-231 breast, in the assay on NCI-H226 lung, in the assay on NCI-H522 lung and in the assay with SNB-75 CNS was over 100 µM throughout. The TGI in the assay with SW-620 colon, in the assay with TK-10 renal and in the assay with UACC-257 melanoma was over 100 µM throughout.
Take `CCOC(=O)/C=C(\C(=O)OCC)n1ccc(=O)n(Cc2cn(COCCOC(C)=O)nn2)c1=O`: the TGI in the assay on DU-145 prostate is over 100 µM; in the assay on M14 melanoma, over 100 µM; in the assay on MDA-MB-231 breast it was 41.1 µM; with NCI-H226 lung it was 29.7 µM; in the assay on NCI-H460 lung, over 52.5 µM; in the assay with NCI-H522 lung it was 8.34 µM. Also, the TGI with SNB-75 CNS is over 69.4 µM; in the assay with SW-620 colon, 31.4 µM; in the assay with TK-10 renal, 29.2 µM; with UACC-257 melanoma it was 47.2 µM.
Consider `CC(NC(=O)N(C)C)NC(=O)N(C)C`, for which the TGI with DU-145 prostate, in the assay with M14 melanoma, in the assay on MDA-MB-231 breast, with NCI-H226 lung, in the assay on NCI-H460 lung and with NCI-H522 lung was over 10 µM each time. Moreover, the TGI with SNB-75 CNS, in the assay with SW-620 colon, in the assay on TK-10 renal and in the assay on UACC-257 melanoma was over 10 µM in each case.
On to `COC1=C(C)C(=O)c2c(c(COC(N)=O)c3n2CC(OC(C)=O)C3OC(C)=O)C1=O` (stereo unspecified), for which the TGI in the assay on DU-145 prostate was 0.265 µM; with M14 melanoma, 0.514 µM; with MDA-MB-231 breast, 0.515 µM; with NCI-H226 lung it was 1.39 µM; in the assay on NCI-H460 lung it was 0.235 µM; in the assay with NCI-H522 lung it was 0.0379 µM. Further, the TGI stood at 1.09 µM in the assay on SNB-75 CNS, 0.166 µM in the assay on SW-620 colon, 1.56 µM with TK-10 renal and 0.375 µM with UACC-257 melanoma.
For the compound `OCc1ccc2c(c1)CC1(Cc3ccc(/C=N/O)cc3C1)C2` (stereo unspecified), the TGI in the assay on DU-145 prostate was over 100 µM; in the assay on M14 melanoma, 21.6 µM; with MDA-MB-231 breast it was over 100 µM; in the assay with NCI-H226 lung, 71 µM; in the assay on NCI-H460 lung, 18.9 µM; in the assay with NCI-H522 lung, 10.8 µM. The TGI in the assay on SNB-75 CNS is over 25.5 µM; in the assay on SW-620 colon, over 100 µM; in the assay on TK-10 renal, over 100 µM; with UACC-257 melanoma it was 18.7 µM.
Turning to `Cc1cnc2c(c1)C(=O)C1=C(C2=O)C2OC(=O)CC2OC1(C)C` (stereo unspecified), the TGI in the assay on DU-145 prostate is 3.02 µM; in the assay with M14 melanoma, 0.824 µM; with MDA-MB-231 breast, 0.35 µM; with NCI-H226 lung, 2.31 µM; in the assay with NCI-H460 lung it was 2.28 µM; with NCI-H522 lung it was 0.148 µM. The TGI in the assay on SNB-75 CNS is 4.1 µM; with SW-620 colon it was 0.768 µM; in the assay with TK-10 renal it was 1.95 µM; in the assay with UACC-257 melanoma, 0.469 µM.
For `Oc1[nH]c2ccccc2c1N=NC(=S)Nc1ccc(Cl)cc1`, the TGI with DU-145 prostate was over 100 µM; with M14 melanoma, 45.2 µM; with MDA-MB-231 breast, 99.6 µM; with NCI-H226 lung, 86.4 µM; with NCI-H460 lung it was over 100 µM; with NCI-H522 lung, over 100 µM. Besides, the TGI with SNB-75 CNS was over 100 µM; in the assay on SW-620 colon it was over 100 µM; in the assay with TK-10 renal, 94.1 µM; with UACC-257 melanoma it was over 100 µM.
On to `CCCCn1c(-c2ccc([N+](=O)[O-])cc2)cs/c1=N/N=C1\C(=O)Nc2ccc(Br)cc21`, for which the TGI in the assay with DU-145 prostate was found to be 30 µM; in the assay with M14 melanoma it was 27.1 µM; in the assay on MDA-MB-231 breast, 32.7 µM; with NCI-H226 lung, 38.3 µM; in the assay on NCI-H460 lung, 38.3 µM; with NCI-H522 lung, 36.7 µM. Also, the TGI in the assay on SNB-75 CNS is 59.8 µM; with SW-620 colon, over 100 µM; with TK-10 renal, 34 µM; in the assay with UACC-257 melanoma, 47.2 µM.
In the case of `CC(=O)OC1C(COC(=O)c2ccccc2)OC(Nc2ncc(-c3ccc(Br)cc3)s2)C(OC(=O)c2ccccc2)C1OC(=O)c1ccccc1` (stereo unspecified), the TGI with DU-145 prostate, with M14 melanoma, with MDA-MB-231 breast, in the assay on NCI-H226 lung, in the assay on NCI-H460 lung and in the assay on NCI-H522 lung was over 100 µM throughout. The TGI in the assay with SNB-75 CNS, with SW-620 colon, with TK-10 renal and in the assay with UACC-257 melanoma was over 100 µM throughout.
